Experimental data from PMC3005334 (Cell, 2010).

Assays:
Erg1 = molecular target: T1, Erg1 (Saccharomyces cerevisiae, UniProt P32476); assay type: binding; conditions: in vivo bound, LC-MS
T1 sequence (P32476 1-496): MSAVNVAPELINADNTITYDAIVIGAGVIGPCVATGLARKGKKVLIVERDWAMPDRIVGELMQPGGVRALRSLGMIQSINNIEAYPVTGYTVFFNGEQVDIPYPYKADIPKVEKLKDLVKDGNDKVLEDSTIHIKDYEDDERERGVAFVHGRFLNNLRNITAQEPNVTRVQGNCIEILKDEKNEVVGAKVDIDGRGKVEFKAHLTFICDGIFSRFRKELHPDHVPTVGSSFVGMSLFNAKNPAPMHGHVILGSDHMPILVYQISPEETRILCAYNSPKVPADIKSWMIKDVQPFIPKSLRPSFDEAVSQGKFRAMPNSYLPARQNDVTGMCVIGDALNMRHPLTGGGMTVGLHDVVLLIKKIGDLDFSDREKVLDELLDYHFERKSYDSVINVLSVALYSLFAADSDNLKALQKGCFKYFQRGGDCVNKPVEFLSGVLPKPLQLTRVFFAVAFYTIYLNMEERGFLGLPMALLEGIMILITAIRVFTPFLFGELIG

Erg3 = molecular target: T2, Erg3 (Saccharomyces cerevisiae, UniProt P32353); assay type: binding; conditions: in vivo bound, LC-MS; known substrate
T2 sequence (P32353 1-365): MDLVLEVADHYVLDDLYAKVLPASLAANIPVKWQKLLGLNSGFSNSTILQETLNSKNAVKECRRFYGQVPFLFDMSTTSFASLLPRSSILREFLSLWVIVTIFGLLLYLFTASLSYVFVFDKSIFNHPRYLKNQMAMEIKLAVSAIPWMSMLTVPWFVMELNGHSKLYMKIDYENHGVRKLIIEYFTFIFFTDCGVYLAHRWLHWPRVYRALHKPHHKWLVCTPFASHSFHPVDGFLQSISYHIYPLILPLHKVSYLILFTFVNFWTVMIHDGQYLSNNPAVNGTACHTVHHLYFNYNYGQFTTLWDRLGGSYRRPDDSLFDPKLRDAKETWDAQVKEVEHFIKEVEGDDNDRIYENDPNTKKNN

[1] = tested on: 21 ergosterol biosynthetic proteins (Erg proteins); conditions: of 21 Erg enzymes, above the control
ypk1Δ cells [2] = assay: Growth of kinase deletion strain in the presence of ergosterol inhibitor; assay type: cell-based, Saccharomyces cerevisiae; conditions: different concentrations of inhibitor, cell density
ypk1Δ cells [3] = conditions: ref Gupta et al., 2003; Hillenmeyer et al., 2008; cited from earlier work

| Compound | association with Erg1 among the 21 Erg proteins (Erg1) | number of Erg proteins the metabolite co-purified with [1] | further results |
| --- | --- | --- | --- |
| CC(C)=CCC[C@@H](C)[C@H]1CC[C@H]2C3=C(CC[C@]12C)[C@@]1(C)CCC(=O)C[C@@H]1CC3 [5α-cholesta-8,24-dien-3-one] | specifically associated only with Erg1 |  |  |
| CC(C)=CCC/C(C)=C/CC/C(C)=C/CC/C=C(\C)CC/C=C(\C)CC[C@@H]1OC1(C)C [(S)-2,3-epoxysqualene] | specifically associated only with Erg1 |  |  |
| C=C(CC[C@@H](C)[C@H]1CC[C@H]2C3=CC[C@H]4C[C@@H](O)CC[C@]4(C)[C@H]3CC[C@]12C)C(C)C [episterol] |  | 3 | binding to Erg3 (Erg3): bound |
| CC(C)=CCC[C@@H](C)[C@H]1CC[C@@]2(C)C3=C(CC[C@]12C)[C@@]1(C)CC[C@H](O)C(C)(C)[C@@H]1CC3 [lanosterol] |  | 5 |  |
| C[C@@H]1[C@H](O)[C@@H](C)/C=C/C=C/CC/C=C/C=C/C=C/C=C/C(O[C@H]2O[C@H](C)[C@@H](O)[C@H](N)[C@@H]2O)CC2O[C@](O)(CC(O)C(O)CCC(O)CC(O)CC(O)CC(=O)O[C@H]1C)CC(O)C2C(=O)O (stereo partly shown) [nystatin] |  |  | growth of ypk1Δ cells (ypk1Δ cells [2]): sensitive; sensitivity of yeast strains lacking Ypk1 (ypk1Δ cells [3]): sensitive |
